The results in this text go back to US12310967B2, “Compositions and methods of treatment for neurological disorders comprising motor neuron diseases” (Gliapharm SA, priority 2017, dated 2025).

The subject of experiment [1] is primary astrocytes. The experiment in a line: MTT viability assay. Particulars: Mus musculus, Astrocyte; CDC54K hits, 0-200 uM, 24 h. The experiment is classed as cell-based. As to the method:
For cell toxicity determination, astrocytes in 96-well plates were stimulated 24 h (37° C. 5% CO2/95% air) with a gradient ranging from 0.1 to 200 μM of tested compounds. After stimulation, 5 mg/ml thiazol blue tetrazolium bromide (MTT, Sigma-Aldrich) in warm D5030 complete medium was added to each well, and cells were incubated for 4 h at 37° C. (5% CO2). The medium was then removed by aspiration, and the reaction was stopped by the addition of 50 μl DMSO per well.
The amount of reduced MTT (formazan) solubilized in DMSO was then determined spectrophotometrically using absorbance at 570 nm (Safire 2; Tecan).
MTT cellular viability assay was performed on astrocytes exposed to Preswtick Hits (concentrations ranging from 0 uM to 200 uM).
MTT cellular viability assay was performed on astrocytes exposed to CDC54K Hits (concentrations ranging from 0 uM to 200 uM).

The subject of experiment [2] is primary astrocytes. The experiment in a line: Mitochondrial activity: production of H2O2 (Amplex red). The experiment is classed as cell-based. Particulars: Mus musculus, Astrocyte, 1.5 h; CDC54K hits, 0-200 uM, 90 min. As to the method: Hydrogene peroxide (H2O2) released in the supernatant is detected enzymatically with Amplex red (Zhou, Diwu et al. 1997). Oxidation of Amplex red is catalysed by the horseradish peroxidase in presence of H2O2 into highly fluorescent resorufin. Fluorescence measure is read at 545 nm extinction, 590 nm emission. The amount of H2O2 was expressed relatively to the proteins content extracted from the cells in culture.
Mitochondrial respiration in astrocytes was measured through production of H2O2 at 90 min after stimulation with Prestwick Hits (10 uM each). […] CCCP (2 uM) was used as positive control.
Mitochondrial respiration in astrocytes was measured through production of H2O2 at 90 min after stimulation with CDC54K Hits (ranging from 0 to 200 uM).

In experiment [3] the test system is primary astrocytes. The experiment in a line: Extracellular lactate quantification. The experiment is classed as cell-based, mouse. Particulars: for Score_LACTATE: Appendix I, secondary screening: extracellular lactate; for EC50: Mus musculus, Astrocyte. The essentials:
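Astrocytes were stimulated 90 min at 37 °C in D5030 medium with 5 mM glucose and 44 mM bicarbonate, with compound at 0-100 μM. Extracellular lactate was measured enzymatically with LDH/NAD in glycine-semicarbazide buffer, pH 10, for 1 h at 37 °C. NADH fluorescence (340/450 nm) was converted to lactate using an L-lactate standard curve.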

Experiment [4] relates to primary astrocytes. The experiment in a line: Intracellular glycogen quantification, Example 2. It is filed as cell-based, mouse. Particulars: 10 μM, 3 h. The procedure: Astrocytes grown on 12-well plates were used for intracellular glycogen quantifications. Cells were stimulated with Vehicle (DMSO), with compounds of the invention (10 μM), or with a positive control for 180 min, at 37° C. 5% CO2/95% air in D5030 medium complemented with
5 mM D-glucose and 44 mM sodium bicarbonate (pH 7.2). […] At the end of the stimulation, medium was removed and replaced with 600 μl of 30 mM Tris HCl, and stored at −20° C.
First, the amount of proteins in each sample was quantified to assess whether harvested astrocytes from primary cell cultures yielded enough and equivalent amounts of proteins on each replicates. Proteins were quantified using the micro BCA Protein Assay kit (Thermo Scientific), according to manufacturer's instructions. Next, intracellular glycogen concentrations were quantified using a 250 μl-aliquot of the same stimulated, thawed, and sonicated cell lysate. After an incubation period of 30 min at 90° C. and 400 rpm, 28 μl of a 0.1M acetic acid/sodium acetate buffer (pH 4.6) was added to each lysate aliquots, which were then separated in two. Each split aliquots received either 5 μl of amyloglucosidase or H2O, and incubated for 120 min at 37° C. After centrifugation at 16'000G for 5 min, 20 μl of supernatant were placed in a 96-well plate, to which 150 μl of a mix containing 0.67 mM ATP, 0.67 mM NADP, 1.8% hexokinase/glucose-6-phosphate dehydrogenase in a 0.1M Tris Buffer-HCl/3.3 mM magnesium (pH 8.1) buffer was added. Fluorescence intensity (340 nm excitation/440 nm emission) was measured using a Safire 2 spectrophotometer. Glucose concentrations were assessed relative to a glucose standard curve, and glycogen concentrations were calculated by subtracting glucose values of samples that had received amyloglucosidase (i.e. that had degraded their glycogen stores) to samples that had not. Intracellular levels of glycogen, which is the main source of glucose storage in the brain, were analyzed in primary astrocytes after treatment with compounds of interest (10 μM, 3 h) (FIG. 5B), and compound GP-0157 (0.1, 1, 10 μM, 3 h) (FIG. 20).

Experiment [5] relates to cerebral extracellular lactate. The experiment in a line: In vivo pharmacodynamics - lactate biosensors. Further details: species or system mouse. Particulars: 100 mg/kg per os, AUC ratio vs vehicle. As to the method:
Extracellular levels of lactate were monitored in vivo using lactate biosensors (Pinnacle Technology), according to the manufacturer's instructions. Cannulae were surgically implanted in mice cerebral cerebral motor cortex areas M1/M2 (coordinates: +1.94 mm (to bregma), lateral −1.4 mm (to mideline), ventral −1.0 mm (to dura)) 5-7 days before administration of the compounds. Drugs were administered per os as previously described, and cerebral levels of extracellular lactate were dynamically recorded for 6 hours. Mice were administered vehicle alone first, followed 3 hours later by vehicle or drug (10 or 100 mg/kg). Area Under the Curve (AUC) quantifying the fluctuations of extracellular lactate concentrations for each of the compound tested was calculated using Graphad Prism and the ratio of AUC after drug over Vehicle administration was calculated. Groups of 8 male mice were used for each condition.
To measure biological effect of lead molecules in vivo in the brain, lactate levels were quantified after administration of the drug by using lactate biosensors implanted in the cortex of freely moving mice.

[6] abbreviates: 1.5 h, CDC54K hits, 0-100 uM, 90 min, read-out: Lactate EC50.

Read-outs that look alike come from different tables or passages of the source. A value given as a limit tells only on which side of the number the result lay.

As for `CCc1ccc(S(=O)(=O)Nc2ccc3[nH]ncc3c2)cc1` [T5599014], the values for the IC50 with primary astrocytes [1] and in the experiment with primary astrocytes [2] were more than 200 µM and 158 µM, respectively. The molecule also registered a Score_LACTATE with primary astrocytes [3] of 0.4419. Moreover, in the experiment with primary astrocytes [3] (setting [6]), the EC50 was 8.8 µM.

`CCn1nccc1-c1csc(S(=O)(=O)Nc2ccc(Cl)cc2F)c1` [L924-1031]: the results for the IC50 with primary astrocytes [1] and in the experiment on primary astrocytes [2] were more than 200 µM and 48.6 µM, respectively. In the experiment on primary astrocytes [3], this molecule displayed a Score_LACTATE of 1.632. Besides, in the experiment with primary astrocytes [3] (setting [6]), the EC50 was determined as 25.3 µM. The “mobilization of intracellular glycogen” value in the experiment with primary astrocytes [4] is “significantly enhance”.

As for `CCc1nc(-c2csc(S(=O)(=O)NCc3ccc4c(c3)OCO4)c2)no1` [L287-0468], the IC50 in the experiment on primary astrocytes [1] and with primary astrocytes [2] was more than 200 µM in each case. Moreover, the Score_LACTATE in the experiment with primary astrocytes [3] stood at 0.6179. In addition, the EC50 in the experiment with primary astrocytes [3] (setting [6]) came to 7.9 µM. Besides, the “mobilization of intracellular glycogen” value in the experiment on primary astrocytes [4] is on record as “significantly enhance”.

With `COc1cc(C)c(Cl)cc1S(=O)(=O)NCc1ccncc1` [T5580243], the IC50 in the experiment on primary astrocytes [1] and in the experiment on primary astrocytes [2] was more than 200 µM throughout. Besides, the cerebral lactate result in experiment [5] is on record as “Significant increase”. The Score_LACTATE in the experiment with primary astrocytes [3] turned out to be 0.7229. For the same molecule, the EC50 with primary astrocytes [3] (setting [6]) stood at 11 µM.

On to `N#Cc1ccc(C(=O)N2CCC(Nc3ncnc4c3CCC4)C2)cc1` (stereo not shown) [T636-2387], for which the 50% inhibitory concentration (IC50) with primary astrocytes [1] and in the experiment on primary astrocytes [2] was more than 200 µM in each case. Further, in experiment [5], the cerebral lactate entry is listed as “Significant increase”. Moreover, in the experiment on primary astrocytes [3], the Score_LACTATE was determined as 0.3005. The “Score Lact.” value in the experiment on primary astrocytes [3] (Appendix II, CDC54K library) worked out at 0.30. Besides, the EC50 came out at 11.5 µM with primary astrocytes [3] (setting [6]) and 6.83 µM in the experiment on primary astrocytes [3] (Appendix II, lactate secretion, read-out: EC50). Further, in the experiment with primary astrocytes [4], the “mobilization of intracellular glycogen” value was “significantly enhance”.

On to `CCc1ccc(S(=O)(=O)N2CCSC2c2ccc(OC)c(OC)c2)cc1` (stereo not shown) [T5463586], for which the IC50 in the experiment on primary astrocytes [1] and in the experiment with primary astrocytes [2] was more than 200 µM in each case. Also, the Score_LACTATE with primary astrocytes [3] is on record as 0.3936. The concentration giving a half-maximal response (EC50) in the experiment with primary astrocytes [3] (setting [6]) was 10 µM.

For the molecule `Cc1ccccc1NC(=O)C1CCCN(c2ncnc3oc(C)c(C)c23)C1` (stereo not shown) [F228-0422], the IC50 in the experiment with primary astrocytes [1] and in the experiment on primary astrocytes [2] was more than 200 µM in each case. Besides, the Score_LACTATE with primary astrocytes [3] worked out at 0.6364. The EC50 in the experiment on primary astrocytes [3] (setting [6]) turned out to be 0.5 µM. Also, in the experiment with primary astrocytes [4], the “mobilization of intracellular glycogen” value is listed as “significantly enhance”.

Turning to `Cc1nc2ccc(NS(=O)(=O)c3cccc(F)c3)cc2s1` [T6937001], the IC50 in the experiment on primary astrocytes [1] and in the experiment with primary astrocytes [2] was more than 200 µM throughout. The molecule further registered a Score_LACTATE in the experiment with primary astrocytes [3] of 0.9088. Further, the EC50 in the experiment on primary astrocytes [3] (setting [6]) was 11.5 µM. For the same molecule, the “mobilization of intracellular glycogen” value in the experiment on primary astrocytes [4] was “significantly enhance”.

As to `CC(=O)N1CCc2sc(S(=O)(=O)N3CCN(c4ccccc4C)CC3)cc2C1` [P025-0159], the IC50 with primary astrocytes [1] and in the experiment with primary astrocytes [2] was more than 200 µM throughout. In addition, the cerebral lactate entry in experiment [5] is reported as “Significant increase”. For the same molecule, the Score_LACTATE in the experiment on primary astrocytes [3] was determined as 0.9232. In the experiment on primary astrocytes [3] (setting [6]), the EC50 is 8.7 µM. In the experiment on primary astrocytes [4], the “mobilization of intracellular glycogen” value is given as “significantly enhance”.

In the case of `CSc1cccc(NS(=O)(=O)c2ccc3onc(C(=O)N4CCCC4)c3c2)c1` [L995-0125], the IC50 with primary astrocytes [1] is more than 200 µM; in the experiment on primary astrocytes [2], 173 µM. In the experiment on primary astrocytes [3], this molecule displayed a Score_LACTATE of 0.9122. Also, in the experiment on primary astrocytes [3] (setting [6]), the EC50 came to 2 µM.

For `c1ccc2c(c1)CCN(c1ncnc3sccc13)C2` [T0517-8250], in the experiment with primary astrocytes [3], the Score_LACTATE worked out at 0.9269. For the same molecule, the “mobilization of intracellular glycogen” value in the experiment with primary astrocytes [4] was “significantly enhance”.

On to `O=C1CCCN1c1ccc(S(=O)(=O)Nc2cccc(/C=C/c3ccccn3)c2)cc1` [T5644989], for which the IC50 in the experiment with primary astrocytes [1] and in the experiment on primary astrocytes [2] was more than 200 µM each time. The Score_LACTATE in the experiment with primary astrocytes [3] was 0.7859. Besides, the half-maximal effective concentration (EC50) in the experiment with primary astrocytes [3] (setting [6]) was 7.9 µM. Besides, in the experiment on primary astrocytes [4], the “mobilization of intracellular glycogen” value is given as “significantly enhance”.
